The values that follow come from US20260217693A1, “SRPK1 INHIBITORS AND METHODS OF USE” (ALLIANTHERA (SUZHOU) BIOPHARMACEUTICAL CO., LTD., priority 2023, published 2026).

Assay [1] concerns the target T1, SRPK1 (Homo sapiens, UniProt Q96SB4). Description: SRPK1 assay, Method 2 (ADP-Glo luminescence). It counts as biochemical. To be noted: Method 2 (asterisk): substrate Human SRSF1/SF2 0.15 μM, ATP 4 μM, 25° C. for 3 h, test compounds 100 nM top, 3-fold, 10 dose. On the procedure:
(§1) The SPRK1 assay was performed as follows:
Method 2: The assay buffer was prepared. The reference compound was diluted to 1 mM in the assay buffer. The test compounds were prepared at a concentration of 100 μM, then diluted 3-fold. Five nL of compounds/DMSO were transferred to 384-well plate. The reference compound is 1000 nM top concentration, 3-fold, 10 dose. The test compounds are 100 nM top concentration, 3-fold, 10 dose. 2.5 ul of enzyme (SRPK1 final concentration at […]) was added to each well, then the plate was spun down at 1000 rpm and centrifuged for 30 sec. After, 2.5 ul substrate (Human SRSF1/SF2 final concentration of 0.15 μM, ATP final concentration of 4 μM) was added to the plate, spun down at 1000 rpm and centrifuged for 30 sec. The plate was then placed in an incubator at 25° C. for 3 h. Then, 5 μl of ADP-Glo™ Reagent was added to each well, and the plate incubated at room temperature for 60 minutes. After 60 min, 10 μl of Kinase Detection Reagent was added to each well, and the plate was incubated at room temperature for 30 minutes. The luminescence of each well was recorded on Envision.
All assays were performed using Method 1, except where indicated with an asterisk (*) in the below table, indicating Method 2 was used. I.A. indicates an IC50 greater than 30 μM.

The target in assay [2] is T1, SRPK1. Description: SRPK1 assay, Method 1 (ADP-Glo luminescence). It counts as biochemical. To be noted: Method 1 (no asterisk): substrate Human SRSF1/SF2, 25° C. for 90 min, test compounds 30 μM top, 3-fold, duplicate. The protocol: as §1
Method 1: The assay buffer was prepared. The reference compound was diluted to 10 mM. The test compounds were prepared at a concentration of 30 mM. Fifteen nL of compounds/DMSO were transferred to a multi-well plate. Then, 7.5 ul enzyme SRPK1 was added to each well, the plate was spun down at 1000 rpm and centrifuged for 30 sec. Then, 7.5 ul substrate Human SRSF1/SF2 was added to each well, the plate spun down at 1000 rpm and centrifuged for 30 sec. The plate was then incubated at 25° C. for 90 min. After 90 min, 5 μl of ADP-Glo™ Reagent was added to each well and the plate incubated at room temperature for 60 minutes. Then, 10 μl of Kinase Detection Reagent was added to each well and the plate incubate at room temperature for 60 minutes. The luminescence of each well was recorded on Envision. The test compounds were at 30 μM top, 3-fold, in duplicate, and the final concentration of DMSO was 0.1%.
All assays were performed using Method 1, except where indicated with an asterisk (*) in the below table, indicating Method 2 was used.
(In ADP-Glo the light output rises with the ADP produced.)

T1 sequence (Q96SB4 whole entry): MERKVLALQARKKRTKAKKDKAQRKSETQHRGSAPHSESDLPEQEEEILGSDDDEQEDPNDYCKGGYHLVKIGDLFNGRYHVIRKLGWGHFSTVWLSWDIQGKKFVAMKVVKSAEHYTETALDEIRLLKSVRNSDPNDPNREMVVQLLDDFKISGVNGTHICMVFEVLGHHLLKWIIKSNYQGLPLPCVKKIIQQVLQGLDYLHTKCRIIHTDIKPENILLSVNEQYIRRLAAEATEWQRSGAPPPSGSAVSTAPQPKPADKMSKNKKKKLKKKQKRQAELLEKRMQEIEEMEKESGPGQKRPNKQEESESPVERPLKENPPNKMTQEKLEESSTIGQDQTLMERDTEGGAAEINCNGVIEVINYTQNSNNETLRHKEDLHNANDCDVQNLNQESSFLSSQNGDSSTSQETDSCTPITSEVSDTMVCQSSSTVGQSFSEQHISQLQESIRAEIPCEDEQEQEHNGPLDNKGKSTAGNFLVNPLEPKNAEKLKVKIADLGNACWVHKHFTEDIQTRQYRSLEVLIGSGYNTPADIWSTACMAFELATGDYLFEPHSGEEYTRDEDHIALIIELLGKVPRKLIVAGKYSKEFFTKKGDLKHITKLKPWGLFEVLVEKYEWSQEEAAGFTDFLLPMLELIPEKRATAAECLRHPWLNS

In general, IC50 refers to the concentration needed to halve the response being measured. High values mean a need for much substance, low ones inhibition by little substance. In turn, `Nc1cc(-c2ccc(C(=O)Nc3cc(C(F)(F)F)cnc3N3CCC(O)CC3)o2)ccn1` [Compound 015] showed an IC50 in assay [1] of 3.98 nM.

Consider `Nc1cc(-c2ccc(C(=O)Nc3cc(C4CC4)cnc3N3CCC(O)CC3)o2)ccn1` [Compound 018], for which, in assay [1], the IC50 amounted to 0.942 nM.

Consider `Nc1cc(-c2ccc(C(=O)Nc3cc(C4CC4)cnc3N3CCC(O)CC3)o2)cc(N)n1` [Compound 020], for which the IC50 in assay [1] was 0.248 nM.

In the case of `O=C(Nc1cc(C2CC2)cnc1N1CCC(O)CC1)c1ccc(-c2ccnc(O)c2)o1` [Compound 022], in assay [1], the IC50 worked out at 1.4 nM.

As to `CC1(C(N)=O)CCN(c2ncc(C(F)(F)F)cc2NC(=O)c2ccc(C3CCOCC3)o2)CC1` [Compound 048], the midpoint of inhibition in assay [1], the IC50, lay at 24.9 nM.

Regarding `O=C(Nc1cc(C(F)(F)F)cnc1N1CCC(O)CC1)c1ccc(-c2cn[nH]c2)o1` [Compound 053], in assay [1], half-maximal inhibition (IC50) required 1.98 nM.

As for `O=C(Nc1cc(C2CC2)cnc1N1CCC(O)CC1)c1ccc(-c2cn[nH]c2)o1` [Compound 086], the IC50 in assay [1] was 0.615 nM.

For `CC1(O)CCN(c2ncc(C3CC3)cc2NC(=O)c2ccc(-c3cn[nH]c3)o2)CC1` [Compound 095, N-[5-cyclopropyl-2-(4-hydroxy-4-methyl-1-piperidyl)-3-pyridyl]-5-(1H-pyrazol-4-yl) furan-2-carboxamide], the half-maximal inhibitory concentration (IC50) in assay [1] was 0.769 nM.

The compound `O=C(Nc1cc(C(F)(F)F)cnc1N1CCC(O)CC1)c1ccc(-c2cn[nH]c2)cn1` [Compound 097, N-[2-(4-hydroxy-1-piperidyl)-5-(trifluoromethyl)-3-pyridyl]-5-(1H-pyrazol-4-yl)pyridine-2-carboxamide] registered a half-inhibitory concentration (IC50) in assay [1] of 3.23 nM.

`Nc1cc(-c2ccc(C(=O)Nc3cc(C4CC4)cnc3N3CCc4[nH]ncc4C3)o2)cc(N)n1` [Compound 131] registered an IC50 in assay [2] of more than 30000 nM.

Take `C[C@@H]1C[C@@H](O)CCN1c1ncc(C(F)(F)F)cc1NC(=O)c1ccc(-c2cc(N)nc(N)c2)o1` [Compound 132]: the IC50 in assay [2] is more than 30000 nM.

`C[C@@H]1C[C@H](O)CCN1c1ncc(C(F)(F)F)cc1NC(=O)c1ccc(-c2cc(N)nc(N)c2)o1` [Compound 133] yielded an IC50 in assay [2] of more than 30000 nM.

For `C[C@@H]1C[C@@H](O)CCN1c1ncc(C2CC2)cc1NC(=O)c1ccc(-c2cc(N)nc(N)c2)o1` [Compound 134], the IC50 in assay [2] was more than 30000 nM.

In turn, `CC1(O)CCN(c2ncc(C3CC3)cc2NC(=O)c2ccc(-c3ccncc3)o2)CC1` [Compound 136, N-(5-cyclopropyl-2-(4-hydroxy-4-methylpiperidin-1-yl)pyridin-3-yl)-5-(pyridin-4-yl) furan-2-carboxamide] showed an IC50 in assay [2] of 36 nM.

`CC1(O)CCN(c2ncc(C3CC3)cc2NC(=O)c2ccc(C3CCOCC3)o2)CC1` [Compound 137, N-(5-Cyclopropyl-2-(4-hydroxy-4-methylpiperidin-1-yl)pyridin-3-yl)-5-(tetrahydro-2H-pyran-4-yl) furan-2-carboxamide]: in assay [2], the IC50 amounted to 210 nM.
